Here are results for nine compounds from patent US5877185A, “Synergistic compositions useful as anti-tumor agents” (priority 1995, dated 1999).

The structures appear in SMILES notation. Where two headings read alike, the source gives them in different places.

The test system of data set [1] is E ras cells. As to the kind of experiment: cytostatic and cytocidal activity. Conditions: for cytostatic and cytocidal effects: at the concentrations given above; for IC50: Bos taurus, average of three trials. The format is cell-based, bovine. The text has this: pADPRT ligands that oxidize CCHC zinc fingers are not unique inhibitors of pADPRT. […] Hakam et al., FEBS Lett. 193:1-4 (1991). These ligands bind non-covalently to the nicotinamide site and internal DNA-seeking domains of pADPRT. Bauer et al., manuscript in preparation (1994). In contrast, CCHC-oxidizing ligands also bind non-covalently to the nicotinamide site, but initially attack the F1 zinc finger oxidatively. Id. […] Id. […] U.S. Ser. No. 08/076,313 filed Jun. 11, 1993.
Each value is the average of three trials. Each trial deviated from the average by no more than twenty percent. […] Another isomer of the iodo-nitro-benzamide series, 2-iodo-4-nitrobenzamide had no effect at the concentrations given above.

In data set [2] the test system is MT-2 cells. As to the kind of experiment: effectiveness on human T-lymphoblastoid leukemia cells, MT-2. It counts as cell-based. Conditions: for IC50: Homo sapiens, MT2, concentration decreasing cell viability to 50% of control, 48 h incubation, read-out: I50; for LD100: zero viability after 48 hours of incubation. How it is done: (§1) IV. Effectiveness of 4-(halogen)-3-nitro-benzamide compounds as tested with human T-lymphoblastoid leukemia cell lines in culture.
(§2) Cells (MT-2 cells, or, in case of 3-fluoro-4-nitro-benzamide, CEM-4 cells) were seeded at a density of 0.1×10^5 /ml; the drugs were added at the time of seeding. The cultures were incubated at 37° C. in a 5% CO2 atmosphere and the cells numbers were monitored by hemacytometer counting in 24 hr intervals.

In data set [3] the test system is CEM-4 cells. Briefly: effectiveness on human T-lymphoblastoid leukemia cells, CEM-4. The format is cell-based. How it is done:
as §1, §2

Data set [4] deals with L-1210 cells. Briefly: time course of cell killing alone and with BSO, L-1210. The format is cell-based, murine. Conditions: L-1210, 2-3 day period; 1 mM BSO. As for the experimental part: (§3) Molt 4-cells were seeded at a density of 0.05×10^6 cell/ml in the recommended growth medium in the absence or the presence of drugs as indicated. Cells were incubated at 37° C. in a 5% CO2 atmosphere and proliferation was monitored in 14 hr. by cell counting in a hemacytometer. .smallcircle., untreated control; .circle-solid., treated with 4 μM 4-iodo-3-nitrobenzoic acid; .gradient., treated with 1 mM BSO; .tangle-soliddn., treated with 4 μM-iodo-3-nitrobenzoic acid and 1 mM BSO; .quadrature., treated with 4 μM 4-INO2 BA; .box-solid., treated with 1 mM BSO; .gradient., treated with 4 μM INO2 BA and 1 mM BSO. L-1210 cells were seeded at a density of 0.05×10^6 cells/ml either from untreated stock suspensions or from 24-hr. pretreated (0.2×10^6 cells/ml) suspensions. .smallcircle., untreated control; .circle-solid., treated with […] NOBA; .gradient., treated with 1 mM BSO; .tangle-soliddn., 24-hr pretreatment with 1 mM BSO then treated with 4 μM NOBA.
(§4) A time course of the cell killings by 4-iodo-3-nitrobenzoic acid, INO2 BA and NOBA, each alone and in combination with BSO was obtained. Molt-4 cells were seeded at a density of 0.05×10^6 cells/ml in the recommended growth medium in the absence or presence of drugs as indicated in FIG. 3. Drugs were added to the wells immediately after seeding from 10-40 mM stock solution in DMSO. BSO was added from a 100 mM aqueous stock solution. Cells were incubated at 37° C. in a 5% CO2 atmosphere and proliferation was monitored in 14 hours by cell counting in a hemacytometer.

The subject of data set [5] is Molt-4 cells. As to the kind of experiment: time course of cell killing alone and with BSO, Molt-4. Conditions: Molt-4, 2-3 day period; 4 μM drug, 1 mM BSO. It counts as cell-based. As for the experimental part: as §3, §4
Data set [6] has as its system L-1210 Murine Leukemia Cells. As to the kind of experiment: effect of nitroso- and nitro-compounds in L-1210 murine leukemia cells (suspension). The format is cell-based. Conditions: drug exposure 18 hours. As for the experimental part: II. I50 and LD100 Values for Nitroso- and Nitro-Compounds in (A) Mammary Cancer Cells (monolayer cultures) and in (B) L-1210 Murine Leukemia Cells (suspension culture).
Cells were seeded at 5×10^4 to 2×10^5 /ml; drugs were added at the time of seeding; drug exposure was for 18 hours.

Data set [7] has as its system AA-2 leukemia cells. As to the kind of experiment: cytocidal effect in combination with ascorbate. How it is done: Because of the in vitro reactivity of the nitroso group of INOBA with both ascorbate and GSH, the apoptosis-inducing effect of NOBA with the action of the prodrug INO2 BA in the presence of ascorbate, added simultaneously with both drugs was compared.
AA-2 cells were seeded at a density of 0.2×10^6 cells/ml. Drugs and/or sodium ascorbate were added at the time of seeding, and cells were counted by hemacytometer after incubation (37° C., 5% CO^2) for 18 hr (Day 1) and for 42 hr (Day 2). Viability was evaluated by Trypan Blue exclusion.

Data set [8] has as its system HIV-1 (LAV strain). As to the kind of experiment: in vitro anti-retroviral testing (HIV-1 inactivation) in human peripheral lymphocytes (PBL). The format is cell-based. How it is done:
Both 6-NOBP and NOBA were tested on viral growth of HIV-1 (LAV strain) in phytohemagglutinin-stimulated human peripheral lymphocytes (PBL). An HIV-1 stock having an infectivity titer of 100,000 TCID50 was incubated for 30 min. at 22° C. with either of the drugs. Control HIV samples, containing no drugs, were incubated in the same manner. […] At the end of this incubation cultures were assayed for productive infection by an immunoassay for HIV-1 antigens and by reverse transcriptase as described in McDougal et al., J. Immunol. Methods 76:171-183 (1985). Virus titers were expressed as percentile values (percent infected cultures) compared to the controls, containing HIV dilutions which were not preincubated with the C-nitroso drugs. In a separate series of experiments, HIV-1 dilutions and C-nitroso drugs (see upper abscissa) were not preincubated but were added simultaneously to lymphocytes in exactly the same concentrations as described previously (i.e., following preincubation) and viral growth monitored 9 days later.

A short description of data set [9]: solubility and stability of nitro versus nitroso compound. The format is physicochemical.
The subject of data set [10] is normal bone marrow progenitor cells. The following applies: tumoricidal concentrations; cited from earlier work.
Data set [11] relates to HIV-1 NC zinc fingers. The following applies: isolated HIV-1 NC zinc fingers and intact HIV-1 virions; cited from earlier work.
For data set [12], the system named is leukemic and other malignant human cells. Conditions: cited from earlier work.
The test system of data set [13] is neutrophil granulocytes. Conditions: tumoricidal concentrations; cited from earlier work.
The test system of data set [14] is human immunodeficiency virus HIV-1. The following applies: human lymphocytes; cited from earlier work.

In the case of `NC(=O)c1ccc([N+](=O)[O-])cc1I` [2-iodo-4-nitrobenzamide], the “cytostatic and cytocidal effects” value in data set [1] is “no effect”.

In the case of `NC(=O)c1cc([N+](=O)[O-])ccc1I` [2-iodo-5-nitrobenzamide], the IC50 amounted to 12 µM in data set [1] (E ras cells, read-out: Cytostatic Effect I50) and 2 µM in data set [1] (with 0.8 mM BSO, read-out: Cytocidal Effect I50). The “cytostatic and cytocidal effects” value in data set [1] is on record as “more effective of the two isomers”.

Regarding `NC(=O)c1ccc(Br)c([N+](=O)[O-])c1` [4-bromo-3-nitro-benzamide], in [2], the IC50 was 120 µM and the LD100 stood at 290.

In the case of `NC(=O)c1ccc(Cl)c([N+](=O)[O-])c1` [4-chloro-3-nitro-benzamide], in [2], the IC50 stood at 130 µM and the LD100 was 300.

As to `NC(=O)c1ccc(F)c([N+](=O)[O-])c1` [4-fluoro-3-nitro-benzamide], the IC50 in data set [3] (Homo sapiens, concentration decreasing cell viability to 50% of control, read-out: I50) worked out at 120 µM. The LD100 in data set [3] (zero viability after 48 hours of incubation) worked out at 280.

Regarding `O=C(O)c1ccc(I)c([N+](=O)[O-])c1` [4-iodo-3-nitrobenzoic acid], the “effect on cell proliferation” value in data set [4] is “no significant effect”. In addition, the “effect on cell proliferation” value in [5] is recorded as “no significant effect”. In data set [6], this compound gave an I50 of 16 nanomoles/10^5 cells and an LD100 of 32 nanomoles/10^5 cells.

Regarding `O=C1O[C@H]([C@@H](O)CO)C([O-])=C1O.[Na+]` [Ascorbate, sodium ascorbate, reference compound], in [7] (160 μM), the “effect on AA-2 leukemia cells by itself” value is “no effect”. In data set [7] (ascorbate 160 μM, 18 hr), the “cell number Day 1” value amounted to 480000 mL⁻¹. Moreover, in [7] (ascorbate 160 μM, 42 hr), the “cell number Day 2” value is 900000 mL⁻¹.

By inhibition is commonly meant the relative decrease from the control value, in per cent. `O=c1ccc2cc([N+](=O)[O-])ccc2o1` [NO2 BP, 6-Nitro-1,2-benzopyrone]: in [8], the “inhibition of HIV-1 activity in human lymphocytes” value was found to be 52%. Moreover, the “TCID50 (calculated infectious titer after treatment)” value in data set [8] (500 μM) is given as 85,114 TCID50. The same compound displayed an inhibition at 500 µM in data set [8] (Human immunodeficiency virus 1, Lymphocyte) of 52.1%. In addition, the log reduction at 500 µM in data set [8] (Human immunodeficiency virus 1, Lymphocyte, 0.5 h, read-out: Decrease) is 0.32. Besides, the stability and solubility entry in data set [9] is “more stable and soluble than the active nitroso compound”. In data set [6], this compound showed an I50 of 35 nanomoles/10^5 cells and an LD100 of 80 nanomoles/10^5 cells.

As to `O=Nc1ccc2oc(=O)ccc2c1` [NOBP, 6-nitroso-1,2-benzopyrone], in data set [8] (100 μM), the “TCID50 (calculated infectious titer after treatment)” value is given as 102 TCID50. Further, the log reduction at 100 µM in data set [8] (Human immunodeficiency virus 1, Lymphocyte, 0.5 h, 100 μM, of TCID50, read-out: Decrease) was 3.24. Also, the inhibition at 100 µM in data set [8] (Human immunodeficiency virus 1, Lymphocyte, 100 μM) was 99.9%. Further, the “effect on normal bone marrow progenitor cells” value in [10] is listed as “relatively harmless”. In addition, the zinc ejection entry in [11] is on record as “eject zinc”. Further, the suppression of proliferation entry in data set [12] is reported as “completely suppressed”. For the same compound, in [9], the stability and solubility result is given as “poorly soluble”. In addition, the “effect on superoxide formation by neutrophil granulocytes” value in data set [13] is recorded as “relatively harmless”. Further, in data set [14], the “inhibition of HIV-1 infection” value is “inhibit infection”.
